{"source": "patent US5559209A", "about": "“Regulator regions of G proteins” (The General Hospital Corporation, priority 1993, dated 1996)", "key": {"[1]": {"target": "T1, Gi2 (Bos taurus, UniProt A7MBH9)", "T1 construct": "trimeric Gi2 (i.e., Gi2 αβγ) purified from bovine brain to near homogeneity; from tissue; host or cells: bovine brain", "T1 sequence (A7MBH9 2-355 limits assumed)": "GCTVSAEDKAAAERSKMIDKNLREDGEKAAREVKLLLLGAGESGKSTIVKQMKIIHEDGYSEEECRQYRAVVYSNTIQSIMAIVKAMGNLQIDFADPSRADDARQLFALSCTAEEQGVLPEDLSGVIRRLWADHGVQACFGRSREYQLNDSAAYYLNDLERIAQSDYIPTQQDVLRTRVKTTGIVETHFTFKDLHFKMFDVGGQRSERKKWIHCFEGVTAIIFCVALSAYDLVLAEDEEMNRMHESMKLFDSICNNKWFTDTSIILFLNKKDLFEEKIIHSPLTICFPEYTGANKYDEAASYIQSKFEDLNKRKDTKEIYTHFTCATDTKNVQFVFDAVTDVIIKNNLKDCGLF", "T1 sequence (P62871 2-340 partner limits assumed)": "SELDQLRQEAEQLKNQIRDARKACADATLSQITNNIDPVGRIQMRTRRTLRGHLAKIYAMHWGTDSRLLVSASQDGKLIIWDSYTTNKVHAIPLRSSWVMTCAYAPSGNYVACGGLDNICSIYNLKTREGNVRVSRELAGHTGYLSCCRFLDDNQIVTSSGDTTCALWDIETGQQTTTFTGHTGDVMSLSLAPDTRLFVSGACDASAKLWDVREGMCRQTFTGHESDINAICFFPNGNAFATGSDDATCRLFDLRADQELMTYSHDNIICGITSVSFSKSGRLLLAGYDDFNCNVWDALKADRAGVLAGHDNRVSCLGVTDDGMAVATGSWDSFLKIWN", "T1 sequence (P63212 2-68 partner limits assumed)": "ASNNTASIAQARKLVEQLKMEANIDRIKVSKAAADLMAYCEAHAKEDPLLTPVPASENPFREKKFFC", "assay": "GTPγS binding assay, peptide 14-induced Gi2 activation", "type": "biochemical, bovine", "procedure": "Materials and Methods The in vitro assays described below utilize the couplone portion of each of a number of G-coupled receptors, instead of an intact receptor molecule, as a means for activating the corresponding anticouplone or intact G-protein. Except as noted below, Gi2 used in this study was trimeric Gi2 (i.e., Gi2 αβγ) purified from bovine brain to near homogeneity (Katada et al., FEBS Lett. 213:353-358 (1987), stored in buffer A (20 mM hepes/NaOH (pH 7.4), 1 mM EDTA, and 0.7% CHAPS), and diluted≥10 fold for assays. The Gi2 used for the reconstitution experiment was trimeric Gi2 purified from bovine spleen to homogeneity and dissolved in buffer B (Morishita et al., 1989). Gi3 α (Morishita et al., Biochem. Biophys. Res. Commun. 172:249-255 (1990), was purified from bovine spleen and used in combination with 1.5-fold concentrated Gβγ (Katada et al., 1987). This preparation of Gi3 α was 10-20% contaminated by Gi1 α, but not by other G proteins. Trimeric Gs and Gβγ purified from bovine brain to near homogeneity (Katada et al., 1987) were also stored in buffer A.\n(§1) GTPγS binding Assay--GTPγS binding to G proteins was assayed at 37° C. in 20 mM Hepes/NaOH buffer (pH 7.4) containing 130 μM MgCl2, 110 μM EDTA and 60 nM [^35 S]GTPγS, as described previously (Okamoto et al., 1990). GTPγS binding to polypeptides was negligible. The total amount of G protein was measured as maximal GTPγS binding at room temperature, as described (Okamoto et al., Cell 67:723-730, 1991a). [^35 S]GTPγS was purchased from DuPont-New England Nuclear. Binding of GTPγS to G proteins obeyed first-order kinetics according to the equation ln[(BT-B)/BT]=-kapp t, where B is the binding at time t and BT is the total binding observable at an infinite time. Thus, the apparent first-order rate constant for GTPγS binding (kapp), which is equal to the slope of the tangent to the GTPγS binding curve at time 0 and represents the actual GTPγS binding rate, was calculated from this equation.\nIn the experiment illustrated in FIG. 1A, 10 nM Gi2 was incubated with 30 μM peptide 14 (RVGLVRGEKARKGK; SEQ ID NO: 27), the couplone portion of the IGF-II receptor, in the presence of various concentrations of (.quadrature.) ACGi2 (DAVTDVIIKNNLKDC; SEQ ID NO: 3), (567 ) the control Gi2 α Glu297-Asp310 peptide (EAASYIQSKFEKLN; SEQ ID NO: 18), or (.diamond.) the control Gi2 α Lys346-Phe355 peptide (KNNLKDCGLF; SEQ ID NO: 19) for 5 min under the GTPγS binding assay conditions described above, and GTPγS binding to G proteins was measured. The effect of ACGi2 on Gi2 in the absence of peptide 14 is indicated by .box-solid.. Percent stimulation of GTPγS binding was calculated by subtracting the basal fractional binding and dividing by the stimulated fractional binding observed in the absence of ACGi2. The basal fractional binding (=0%) was 0.39 mol GTPγS binding/mol Gi /5 min (5 min^-1). The 100% increase represents the GTPγS binding of 0.85 (5 min^-1). Values in all figures represent the mean ±S.E. of three experiments.\nTo verify the notion that ACGi2 acts on Gi2 itself, and not on receptor sequences, two series of experiments were performed. First, the dose-response curve for peptide 14 action on Gi2 in the presence of various concentrations of ACGi2 was generated (FIG. 2A). Following incubation of 10 nM Gi2 with various concentrations of peptide 14 in the absence (.quadrature.) or presence of 10 μM (.diamond-solid.) or 30 μM (.box-solid.) ACGi2 for 5 min, GTPγS binding was assayed; fractional GTPγS binding to Gi2 is indicated in the figure.\nThe second series of experiments investigated the effect of ACGi2 on lower concentrations of Gi2 that had been activated by peptide 14 to the same extent (FIG. 2B). 1 nM Gi2 was incubated for 5 min with 3 μM peptide 14 in the presence of various concentrations of ACGi2, and GTPγS binding was measured. The fractional GTPγS binding at 0% and 100% in this experiment was 0.40 and 0.55 (5 min^-1), respectively. […]"}, "[2]": {"target": "T1, Gi2", "assay": "GTPγS binding, TrM-peptide 14-induced Gi2 activation in phospholipid vesicles", "type": "biochemical, bovine", "conditions": "0.3 nM Gi2 in phospholipid vesicles, 100 nM TrM-peptide 14; read-out: IC50, inhibition of TrM-peptide 14 stimulation of Gi2", "procedure": "Materials and Methods The in vitro assays described below utilize the couplone portion of each of a number of G-coupled receptors, instead of an intact receptor molecule, as a means for activating the corresponding anticouplone or intact G-protein. […]\nas §1, with “GTPγS binding to polypeptides was negligible.” left out, “[^35 S]GTPγS was purchased from DuPont-New England Nuclear. Binding of GTPγS to G proteins obeyed first-order kinetics according to the equation ln[(BT-B)/BT]=-kapp t, where B is the binding at time t and BT is the total binding observable at an infinite time.” left out\nTransmembrane domain-connected peptide 14 [\"TrM-peptide 14\"; […] […] In one of the experiments shown in FIG. 1B, 0.3 nM Gi2 reconstituted in phospholipid vesicles with 100 nM TrM-peptide 14 was exposed to various concentrations of ACGi2, and GTPγS binding was measured (.diamond-solid.). […]"}}, "note": "Where no end group is shown, it is not given here.", "data": [{"sequence": "DAVTDVIIKNNLKDC [ACGi2, DAVTDVIIKNNLKDC]", "values": [{"measurement": "IC50", "setting": "[1]; 10 nM Gi2, 30 μM peptide 14, 5 min, read-out: IC50, inhibition of peptide 14-induced GTPγS binding to Gi2", "value": "~3", "unit": "µM"}, {"measurement": "inhibition at 3 µM", "setting": "[1]; at 3 μM ACGi2 (so in the source), read-out: inhibition of stimulation of Gi2", "value": 100, "unit": "%"}, {"measurement": "IC50", "setting": "[2]", "value": 3, "unit": "µM"}]}]}
